Several values for one entry are separate records, joined by “and”; a condition that tells them apart may be missing. Equal values may be shown once.
Test system: 439559-082-T-J2-PDC spheroid viability
Assay: Anticancer human tumor 439559-082-T-J2-PDC patient-derived colon adenocarcinoma cell line growth inhibition [POLQ]
Settings: spheroids with HUVEC and MSC; for viability, T/C: stronger effect = lower value; for IC50: curve of compound
Description: Multicellular complex tumor spheroid response to Polymerase (POL) inhibitors (novobiocin, ART-558, RP6685) in combination with a variety of drugs and investigational agents in selected tumor cell lines
The POL inhibitors (novobiocin, ART-558, and RP6685) were evaluated both individually and in combination with standard of care and investigational anticancer small molecules within a complex spheroid model of solid tumors. . Complex spheroids include a stromal component modeled by human endothelial cells (HUVEC) and fibroblasts modeled by human mesenchymal stem cells (MSCs). The concentration ranges selected for each drug and investigational agent were based upon clinically achievable concentrations if the clinical Cmax of the agent was known.
Compounds. The drugs and investigational agents: novobiocin (NSC847541), ART-558 (NSC835418), RP-6685 (NSC848927), peposertib (NSC802822), ceralasertib (NSC780249), elimusertib (NSC800525), camonsertib (NSC841442), AZD-1390 (NSC803789), olaparib (NSC753686), talazoparib (NSC767125), rucaparib (NSC756644), sotorasib (NSC818433), MRTX-1133 (NSC836407), SN-38 (NSC673596), topotecan (NSC609699), epotoside (NSC141540), doxorubicin (NSC123127), gemcitabine (NSC613327), 5-fluorouracil (NSC19893), paclitaxel (NSC125973), vemurafenib (NSC761431), MSA-2 (NSC828583), SN-011 (NSC837082), adavosertib (NSC754352), prexasertib (NSC758257), carboplatin (NSC241240) and oxaliplatin (NSC266046), were obtained from the National Cancer Institute (NCI) Developmental Therapeutics Program Chemical Repository (21). The FDA-approved anticancer drug set is available from the Developmental Therapeutics Program at https://dtp.cancer.gov/organization/dscb/obtaining/. […] The stock solutions were prepared in dimethyl sulfoxide (DMSO, Sigma-Aldrich, St. Louis, MO, cat. D2650), except for the platinum compounds which were prepared in saline (Quality Biological, Gaithersburg, MD, cat. 114-055-101), at 800-fold the tested concentration and stored at -70 degrees C prior to their use. All drugs and investigational agents were tested over a range starting from a high concentration at or near the clinical Cmax and decreasing in half-log increments. If the clinical Cmax for an agent had not been determined, the highest concentration tested was 10 microM, except for SN-38, which was tested at a high concentration of 1 microM.
Cell Culture. All cells were maintained in an incubator at 37 degrees C and 5% CO2 with 95% humidity. The PDC lines were cultured according to standard operating procedures established by the NCI PDMR (https://pdmr.cancer.gov). Table 3 of the manuscript, lists the cell lines along with the number of the three cell types plated to form the mct-spheroids and media for tumor cell growth. After thawing, all PDC lines, except 997537-175-T-J1-PDC and 415267-285-R-J2-PDC, were cultured in Matrigel-coated flasks prepared with a working solution of 1X Ham's F-12 nutrient mix, without supplementation (Thermo Fisher Scientific, cat. 11765054), 100 U/mL penicillin-streptomycin (Thermo Fisher Scientific, cat. 15140122), and 2.5% Matrigel (Corning Inc., Corning, NY, cat. 354248) for the first three passages. The two PDC lines 997537-175-T-J1-PDC and 415267-285-R-J2-PDC were cultured on uncoated flasks. The 857933-349-R-J2-PDC line was cultured in 6C/Colon 1B media containing advanced DMEM/F-12 (Thermo Fisher Scientific, cat. 12634028), 10 mM HEPES (Thermo Fisher Scientific, cat. 15630080), 1X GlutaMAX supplement (Thermo Fisher Scientific, cat. 35050061), 0.1 mg/mL primocin (InvivoGen, San Diego, CA, cat. ant-pm-2), 10% defined fetal bovine serum, heat inactivated (HyClone Laboratories Inc., Logan, UT, cat. SH30070.03HI), 50% L-WRN conditioned media (ATCC, cat. CRL-3276), 1.25 mM N-Acetyl-L-cysteine (Sigma-Aldrich, cat. A9165), 10 mM nicotinamide (Sigma-Aldrich, cat. N0636), 1X B-27 supplement (Thermo Fisher Scientific, cat. 17504044), 1X N-2 supplement (Thermo Fisher Scientific, cat. […]
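Note: spheroids exposed to compounds for seven days before readout.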
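Throughout, for viability, T/C: 100% = DMSO vehicle control viability.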

| Structure (SMILES) | viability, T/C (compound 0.000316 µM) | viability, T/C (compound 0.001 µM) | viability, T/C (compound 0.00316 µM) | viability, T/C (compound 0.01 µM) | viability, T/C (compound 0.0316 µM) | viability, T/C (compound 0.1 µM) | IC50 | viability, T/C (compound 0.316 µM) | viability, T/C (compound 1 µM) | viability, T/C (compound 3.16 µM) | viability, T/C (compound 10 µM) |
| --- | --- | --- | --- | --- | --- | --- | --- | --- | --- | --- | --- |
| Cn1ncnc1[C@H]1c2n[nH]c(=O)c3cc(F)cc(c23)N[C@@H]1c1ccc(F)cc1 | 101% and 102% and 94.5% | 100% (2×) and 86.2% | 94.4% and 97.9% and 97.8% | 96.7% and 93.2% and 100% | 97.2% and 98.5% and 107% | 97.3% and 95.7% and 88.3% | > 100 nM |  |  |  |  |
| CC[C@@]1(O)C(=O)OCc2c1cc1n(c2=O)Cc2cc3c(CN(C)C)c(O)ccc3nc2-1 | 102% and 87.1% and 100% | 101% and 94.2% and 99% | 100% and 111% and 96.2% | 92.8% and 100% and 106% | 95.1% and 96.1% and 93.2% | 88.2% and 77.2% and 75.9% | > 100 nM |  |  |  |  |
| COc1cccc(OCCCN)c1-c1cc(Nc2cnc(C#N)cn2)n[nH]1 |  |  | 99.5% and 95.1% and 102% | 88.5% and 89.2% and 81.1% | 73.2% and 77.3% and 77.8% | 55.3% and 76.4% and 78.8% | 118 nM and 296 nM and 345 nM | 30.3% and 45.7% and 50.2% | 18.1% and 20.9% and 23% |  |  |
| COc1ccc([C@@H](O)c2cc(-c3ncnc4cc(N5CCOCC5)ccc34)c(F)cc2Cl)nn1 |  |  |  |  | 94.6% and 84.4% and 97.3% | 98.2% and 88.9% and 93% | > 10000 nM | 93.3% and 85.8% and 90.6% | 103% and 90.1% and 94.2% | 89.3% and 96.5% and 85.9% | 82.2% (2×) and 75.2% |
| C=CCn1c(=O)c2cnc(Nc3ccc(N4CCN(C)CC4)cc3)nc2n1-c1cccc(C(C)(C)O)n1 |  |  | 97.3% and 99% and 101% | 93.6% and 96.3% and 96.2% | 98.5% and 99.2% and 89.3% | 97.7% and 104% and 90.1% | > 1000 nM | 99.3% and 97.5% and 91.7% | 81.2% (2×) and 83.4% |  |  |
